Data reported in patent US7026289B2, “Method and compositions for treating hyperlipidemia and other conditions” (Societe de Conseils de Recherches et d'Applications …, priority 1997, dated 2006).
Positions of bridges follow the written chain, without caps; N, C: chain ends. Non-standard residues stand in square brackets, D forms with d. Residues, ends and D or L forms follow the SMILES beside them.

Tests used:
[1] = test system: fatty (fa/fa) Zucker rats; assay: Reduction of glycerol and triglycerides, chronic treatment in obese rats; assay type: in vivo, rat; conditions: for plasma glycerol / plasma triglycerides: 3 mg/kg s.c. twice a day, 6 days, vs saline
Description: The obese (fa/fa) Zucker and its derivative in the Zucker diabetic fatty (ZDF/Drt-fa) are excellent models of diabetes-induced dyspilidemia (Shafrir, E., Diabetes/Metabolism Rev. 8:179–208 (1992); Peterson, R. G., et al., ILAR News 32:16–19 (1990)). The animals develop progressive hypertriglyceridemia and hypercholesterolemia.
Eleven male fatty Zucker rats weighing about 450 grams were randomly divided into 2 groups and their initial body wights recorded. The animals were housed in pairs in a normal 12 hour light/dark cycle at 20–21 C and fed a standard laboratory rat diet (Beekay rat and mouse diet, Bantin & Kingman, Hull, Humberside, U.K.) overnight ad libitum.
For the group assigned to receive drug treatment, the rats received BIM-23268C at 3 mg/kg, by subcutaneous injection twice a day at 10:00 a.m. and 5:00 p.m. The other group was treated with a subcutaneous injection of 0.1 ml/100 g of saline twice a day at 10:00 a.m. and 5:00 p.m. The animals were subjected to the BIM-23268 or saline treatment for a total of six days.
On the last day of treatment (day 6), food was removed at 5:00 p.m. and the rats fasted overnight. At 9:00 a.m. the next day, the animals were subjected to a glucose challenge, given as a 0.8 gram/kg of glucose orally. Periodic 400 ul of blood samples were taken from the tail vein (Peterson, R. G., ILAR News 32:16–19 (1990)) at 60 min. and 30 min. before, and at 30, 60, 90, and 120 min. after the administration of the glucose challenge (08. gram/kg orally). Aprotinin (Traysylol, Bayer UK, Hayward's Heath, W. Sussex, U.K.) and heparin (Sigma Chemical Co., Poole, Dorset, U.K.) were added to the blood samples to a final concentration of 400 KIU/ml and 100 units/ml, respectively. Plasma fractions were prepared from these samples by centrifugation at 400×G in a microfuge, for the estimation of triglycerides and glycerol. Samples were then stored at −80° C. until assayed.
Plasma glycerol and triglycerides were determined using the Sigma Enzymatic (Tinder) calorimetric assay kit (Cat #337-B, Sigma Chemical Co., Poole, Dorset, U.K.) and measuring absorbance at 540 nm in a spectrophotometer.

[2] = biological target: T1, hSSTR-1 (Homo sapiens, UniProt P30872); assay: Somatostatin receptor binding assay, [125I-Tyr11] somatostatin-14, CHO-K1 membranes; conditions: displacement of 0.05 nM [125I-Tyr11] somatostatin-14, transfected CHO-K1 membranes
T1 construct: expressed in transfected cells
T1 sequence (P30872 whole entry): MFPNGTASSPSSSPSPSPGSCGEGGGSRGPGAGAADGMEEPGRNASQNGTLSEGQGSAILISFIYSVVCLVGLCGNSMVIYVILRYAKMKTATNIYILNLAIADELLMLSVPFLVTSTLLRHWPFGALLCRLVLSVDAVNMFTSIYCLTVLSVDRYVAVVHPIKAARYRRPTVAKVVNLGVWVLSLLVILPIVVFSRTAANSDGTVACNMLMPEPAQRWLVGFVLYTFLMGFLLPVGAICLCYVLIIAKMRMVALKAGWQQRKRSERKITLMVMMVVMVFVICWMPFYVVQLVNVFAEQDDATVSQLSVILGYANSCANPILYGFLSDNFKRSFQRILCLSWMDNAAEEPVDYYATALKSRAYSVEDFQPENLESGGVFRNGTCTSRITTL
Experimental: Restriction endonucleases are available from New England Biolabs (Beverly, Mass.). […] Other mammalian expression vectors include pcDNA1/Amp (Invitrogen, Sandlesy, Calif.). The expression plasmids were introduced into the suitable bacterial host, E. Coli HB101 (Stratagene, La Jolla, Calif.) and plasmid DNAs, for transfection, were prepared on Cesium Chloride gradients.
CHO-K1 (ovary, Chinese hamster) cells were obtained from ATCC (ATCC No. CCL 61). The cells were grown and maintained in Ham's F12 media (Gibco BRL, Grand Island, N.Y.) supplemented with 10% fetal bovine serum under standard tissue culture conditions. […] DNA mediated transfection was carried out using the calcium phosphate co-precipitation method (Ausubel, F. M., et al., Current Protocols in Molecular Biology, John Wiley & Sons, 1987). The plasmid pRSV-neo (ATCC; ATCC No. 37198) was included as a selectable marker at 1/10 the concentration of the expression plasmid. CHO-K1 clonal cell lines that have stably inherited the transfected DNA were selected for growth in Ham's F12 media containing 10% fetal bovine serum and 0.5 mg/ml of G418 (Sigma). The cells were ring-cloned and expanded in the same media for analysis.
Transfected cell lines expressing the human SSTR receptors were clonally expanded in culture and used in the following SSTR binding protocol.
The resulting supernatant was decanted and discarded. […]

[3] = samples 30 and 60 min before oral glucose challenge
[4] = through the 2-hour test period after oral glucose challenge

Ki [2] [µM] | SMILES | plasma glycerol [1, 3] | plasma triglycerides [1, 3] | plasma glycerol [1, 4] | plasma triglycerides [1, 4] | hypertriglyceridemia ([1]; 6-day treatment period at the prescribed dose (3 mg/kg s.c. twice a day))
 | C[C@@H](O)[C@@H]1NC(=O)[C@H](CCCCN)NC(=O)[C@@H](Cc2c[nH]c3ccccc23)NC(=O)[C@H](Cc2ccccc2)NC(=O)[C@H](Cc2ccccc2)NC(=O)[C@@H](N)CSSC[C@@H](C(N)=O)NC(=O)[C@H](Cc2ccccc2)NC1=O [BIM-23268, H-Cys-Phe-Phe-D-Trp-Lys-Thr-Phe-Cys-NH2] (H-CFF[dW]KTFC-NH2; disulfide 1-8) | significantly lowered | significantly lowered | significantly lower | significantly lower | effective in reducing hypertriglyceridemia
0.151 | C[C@@H](O)[C@@H]1NC(=O)[C@H](CCCCN)NC(=O)[C@@H](Cc2c[nH]c3ccccc23)NC(=O)[C@H](Cc2ccc(O)c(I)c2)NC(=O)[C@H](Cc2ccccc2)NC(=O)[C@@H](N)CSSC[C@@H](C(N)=O)NC(=O)[C@H](Cc2ccccc2)NC1=O [BIM-23313, H-Cys-Phe-Tyr(I)-D-Trp-Lys-Thr-Phe-Cys-NH2] |  |  |  |  | 
